# From PubChem BioAssay AID179 (DTP/NCI, 2004)
# pEC50, pIC50: −log10 of the molar value. “And” between values parts separate entries of the source, which are not always exact repeats. Equal entries are not always repeated. The source made the active and inactive calls.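 Rule for the calls: active = compounds giving half or more protection of infected cells from virus-caused growth loss, again on retest; inactive = the rest.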
# Test system: CEM cells HIV-1 protection, formazan growth assay
# Test: NCI AIDS Antiviral Assay
# Details: for pIC50: measured here: growth of uninfected CEM cells
# Summary of the method: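 Protection of CEM cells against HIV-1 was scored from cell growth (soluble formazan) across five concentrations, with parallel uninfected cells. Lack of protection may reflect toxicity.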
SMILES,pEC50,pIC50,outcome
COC(=O)[C@H](Cc1c[nH]c2ccccc12)NP(=O)(O)CCC1OC(n2cc(C)c(=O)[nH]c2=O)CC1N=[N+]=[N-] (stereo partly drawn),< 3.70,< 3.70,
O=C(c1ccccc1)N1CCc2c([nH]c3ccccc23)C1,,,inactive
Cc1cccc(N2C(=O)C(Cl)=C(Cl)C2=O)c1,,,inactive
Cc1ccc(C(=O)n2nc(C)c(N=Nc3ccccc3)c2C)cc1,,,inactive
COc1cc(Cl)cc(N(O)C(C)=O)c1OCc1ccccc1,< 3.25,4.23,
O=Cc1c[nH]c2nccnc12,< 3.42,3.43,
COC(=O)C(C)Sc1nc2cc(Cl)ccc2s1 (stereo not drawn),< 3.70,3.76,
CC(C)(C)[Si](OC1CC(n2cnc3c(N)ncnc32)OC1CO)(c1ccccc1)c1ccccc1 (stereo not drawn),< 4.00,< 4.00,
COC(=O)c1c(C(=O)OC)c(C(=O)OC)c(C(=O)OC)c1C(=O)OC,,,inactive
NC(c1ccccc1)P(=O)(O)O (stereo not drawn),< 3.70,< 3.70,
CC1(C)CNC(=O)C2(C=NC(C)(C)CNC(=O)C3(C=N1)CCCO3)CCCO2 (stereo not drawn),< 4.60,< 4.60,
C=CCCOC(=O)CO[N+](=O)[O-],,,inactive
O=C1NN(Cc2ccccc2)C(=O)N2CCC[C@@H]12,< 3.70,< 3.70,
N#CCN(Cc1ccccc1)[C@H]1CCC[C@]1(O)/C=C/c1ccc2c(c1)OCO2,< 3.70,4.49,
CC(=O)Oc1cc(S(=O)(=O)Nc2n[nH]c(N)n2)c(S)cc1Cl,< 3.70,< 3.70,
O=c1c(C(c2ccc(Cl)cc2)c2c(O)c3ccccc3n(-c3ccccc3)c2=O)c(O)c2ccccc2n1-c1ccccc1,< 5.06,< 5.06,
C=C1SC(=Nc2cccc(OC)c2)N(c2nc(Cl)nc(Cl)n2)C1(C)C,< 3.95,4.70,
OC(c1cc2ccccc2o1)c1cc2ccccc2s1 (stereo not drawn),< 3.70,4.29,
O=C(O)CCC1CCc2cccc(O)c2C1=O (stereo not drawn),,,inactive
S=C(N/N=C(/c1ccccc1)c1ccccn1)Nc1ccccc1,< 6.70,7.01,
O=C1/C(=C/c2ccccc2F)CCc2ccccc21,< 4.97,< 4.97,
C=C(CC/C=C\CO)[Si](C)(C)C,< 3.85,< 3.85,

SMILES,pEC50,pIC50,outcome
N#CC(C(=O)/C(=N\NC(N)=O)C(C#N)c1ccccc1)c1ccccc1 (stereo not drawn),< 3.14,< 3.14,
O=C1C[C@H](c2ccc(O)c(O)c2)Oc2cc(O)cc(O)c21,< 3.20,4.01,
Cc1ccc(S(=O)(=O)NCCSCCSCCNS(=O)(=O)c2ccc(C)cc2)cc1,< 4.41,< 4.41,
Nc1nc(Cl)cc(NCC2(O)CC2)n1,< 3.70,< 3.70,
Cc1c(C)c2c(c3c1OC(C)(C)CC3)CCC(C)(C)O2,< 3.87,4.13,
CN(C)c1ccc2c3c(c(=O)oc2c1)CCC3,< 4.10,< 4.10,
CC(C)CCn1nc(N)c2nc3ccccc3nc21,< 3.70,3.95,
O=[N+]([O-])c1ccc(S(=O)(=O)N/N=C/c2ccccc2[N+](=O)[O-])cc1,< 3.99,< 3.99,
CN1C(=O)CC(=O)N(c2ccccc2)c2cc(Cl)ccc21,,,inactive
COc1c2c(cc3ccc(=O)oc13)C(Cl)C(Cl)O2 (stereo not drawn),< 4.11,4.66,
CC(C)OP(=O)(OC(C)C)/C(C#N)=C/c1c[nH]c2ccccc12,< 3.70,< 3.70,
Cc1ccc(/C=N/Nc2nncc3ccccc23)s1,< 3.70,< 3.70,
CSc1nncc2[nH]cnc12,< 3.70,< 3.70,
C[C@H]1C2=CC(=O)CC[C@@](C)(O2)[C@H]2CC[C@]3(C)C(=O)CC[C@H]3[C@H]12,< 3.08,3.38,
Cc1nc2c(cc1C(=O)N/N=C/c1ccc([N+](=O)[O-])cc1)c(=O)n(C)c(=O)n2C,< 3.70,< 3.70,
S=c1ncnc2cc3[nH][nH]cc3cc12,< 4.17,4.31,
C1COCCSC2=C(SCCO1)SC(=C1SC3=C(SCCOCCOCCS3)S1)S2,< 4.75,< 4.75,
CC[C@H]1CN2CCc3cc(OC)c(OC)cc3[C@@H]2C[C@@H]1C[C@H]1NCCc2cc(OC)c(OC)cc21,,,inactive
CN(C)CCNC(=O)Cn1ccc(=O)c2ccc([N+](=O)[O-])cc21,< 3.70,< 3.70,
CCn1nc(C)c2c1C(=O)NCC(=O)N2,< 3.70,< 3.70,
O=C(O)c1cscc1Cc1ccccc1,< 3.70,< 3.70,
COc1ccccc1NC(=O)C1=C(C)NC(C)=C(C(=O)Nc2ccccc2OC)C1c1cccc2c1OCO2,,,inactive

SMILES,pEC50,pIC50,outcome
Cc1cc2n(n1)C(C)(C)C(=O)Nc1ccc(Cl)cc1-2,< 4.31,4.47,
OCc1c(-c2cccc3ccccc23)sc(-c2cccc3ccccc23)c1CO,,,inactive
COc1cc(Nc2nc3ccc(C(F)(F)F)cc3nc2-c2ccccc2)cc(OC)c1OC,< 4.68,< 4.68,
N/N=C1/C2CN3CCN(C2)CC1(c1ccc([N+](=O)[O-])cc1)C3,< 3.70,< 3.70,
CCC(C(=O)c1ccc(OC)c(OC)c1)N(C(=O)C(F)(F)F)C(C)c1ccccc1 (stereo not drawn),< 3.70,< 3.70,
N=C1C=CC(=C(c2ccc(N)cc2)c2ccc(N)cc2)C=C1,,,inactive
CC(C)(C)NC(NC(C)(C)C)=C(/C=C(/Cl)[N+](=O)[O-])[N+](=O)[O-],< 3.70,3.79,
COC(=O)C(CC(=O)Nc1ccc(Cl)c(Cl)c1)C(=O)C(=O)NC1C2CC3CC(C2)CC1C3 (stereo not drawn),< 4.15,< 4.15,
COC(=O)/C(=N/NC(N)=O)C(C(=O)OC)C(=O)C(=O)Nc1ccc(Cl)cc1 (stereo not drawn),,,inactive
CC(C)N(O)C(=N)c1ccccc1,,,inactive
COc1ccc(-c2nc(-c3cnccn3)n(Cc3ccccc3)n2)cc1,4.08,< 3.70,
CCOC(=O)c1sc2[n+](c1C)C(=O)/C(=C/c1ccccc1Cl)S2,< 3.70,5.47,
CCc1c([N+](=O)[O-])cc2c(c1[N+](=O)[O-])C(C)(C)CCC2C (stereo not drawn),< 3.70,4.84,
C[C@H](NC(=O)n1c2ccccc2c2ccccc21)C(=O)O,< 3.05,3.63,
O=C(O)c1ccccc1CC(Cc1ccccc1)C(=O)O (stereo not drawn),< 3.70,3.90,
CCC1(c2ccc(OC)c(OC)c2)CCN(S(=O)(=O)c2ccc(C)cc2)C1 (stereo not drawn),< 3.70,< 3.70,
O=[N+]([O-])c1cc(C(F)(F)F)ccc1SSc1ccc(C(F)(F)F)cc1[N+](=O)[O-],< 3.70,4.61 and 4.88,
CN1C(=O)C(O)(c2c3c(c(C4(O)C(=O)N(C)c5ccccc54)c4c2OCO4)OCO3)c2ccccc21 (stereo not drawn),< 3.70,< 3.70,
O=C1NC2(CCCCC2)C2CCCCCC12 (stereo not drawn),,,inactive
O=C(CSc1nc(-c2ccccc2)c(-c2ccccc2)[nH]1)NNC(=S)Nc1ccccc1,< 4.25,4.53,
NS(=O)(=O)c1nnc(NC(=O)c2cccc([N+](=O)[O-])c2)s1,< 3.70,< 3.70,
CC(=O)c1c2c(cc3c1CC1(C3)Cc3cc4c(c(C(=O)O)c3C1)CCCC4)CCCC2 (stereo not drawn) (tested in a mixture with another compound),< 3.70,4.41,
